In US12351580B2, “NLRP3 modulators” (Innate Tumor Immunity, Inc., priority 2017, dated 2025):
Counter-ions that a name gives are not always drawn.

These compounds were tested against T1, TLR7 (Homo sapiens, UniProt Q9NYK1) (assay: In vitro human TLR7 binding reporter assay (HEK-Blue, NF-kB/AP1-inducible SEAP)). Settings: activity range symbols.
T1 construct: host or cells: HEK-Blue cells (human HEK) co-expressing TLR7 and an NF-kB/AP1-inducible SEAP reporter
T1 sequence (Q9NYK1 27-1049): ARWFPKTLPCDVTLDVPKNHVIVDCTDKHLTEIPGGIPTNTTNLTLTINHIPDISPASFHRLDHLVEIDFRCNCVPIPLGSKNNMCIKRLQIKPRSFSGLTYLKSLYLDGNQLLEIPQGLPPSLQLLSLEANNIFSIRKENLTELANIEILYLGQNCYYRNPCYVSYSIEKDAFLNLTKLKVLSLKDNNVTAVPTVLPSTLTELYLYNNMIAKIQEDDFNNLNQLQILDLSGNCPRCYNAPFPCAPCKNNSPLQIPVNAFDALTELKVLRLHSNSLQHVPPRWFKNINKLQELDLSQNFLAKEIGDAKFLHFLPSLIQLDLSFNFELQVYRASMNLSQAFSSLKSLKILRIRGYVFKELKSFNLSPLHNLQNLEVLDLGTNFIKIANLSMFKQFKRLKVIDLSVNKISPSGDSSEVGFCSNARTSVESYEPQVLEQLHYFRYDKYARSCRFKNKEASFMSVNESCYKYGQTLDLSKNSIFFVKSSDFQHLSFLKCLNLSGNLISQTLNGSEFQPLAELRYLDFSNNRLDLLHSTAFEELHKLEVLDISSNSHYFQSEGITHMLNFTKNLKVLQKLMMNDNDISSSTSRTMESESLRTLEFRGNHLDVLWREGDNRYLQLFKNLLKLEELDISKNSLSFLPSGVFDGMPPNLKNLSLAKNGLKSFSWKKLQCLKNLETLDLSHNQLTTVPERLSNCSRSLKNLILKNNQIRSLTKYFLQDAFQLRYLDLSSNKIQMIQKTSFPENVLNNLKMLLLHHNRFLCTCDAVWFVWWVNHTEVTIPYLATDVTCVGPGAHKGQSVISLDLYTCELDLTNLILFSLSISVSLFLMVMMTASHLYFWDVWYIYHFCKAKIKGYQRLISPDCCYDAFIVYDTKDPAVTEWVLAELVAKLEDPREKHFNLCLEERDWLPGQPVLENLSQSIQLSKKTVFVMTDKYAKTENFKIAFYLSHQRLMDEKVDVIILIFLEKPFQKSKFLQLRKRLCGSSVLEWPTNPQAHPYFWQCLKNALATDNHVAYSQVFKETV
Format: cell-based
How it was run: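 Reporter cells are plated at 15,000 per well and rested 24 h. Next day, test compounds or DMSO are dispensed, followed by 18 h incubation at 37 °C, 5% CO2.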

Compound | EC50 [µM]
CCNCc1nc2c(N)nc3cc(-c4cc[nH]n4)ccc3c2[nH]1 [Compound 101, 2-[(Ethylamino)methyl]-7-(1H-pyrazol-3-yl)-1H-imidazo[4,5-c]quinolin-4-amine hydrochloride] | > 100
CC(=O)N(C)Cc1nc2c(N)nc3cc(-n4cccn4)ccc3c2[nH]1 [Compound 102, N-((4-Amino-7-(1H-pyrazol-1-yl)-1H-imidazo[4,5-c]quinolin-2-yl)methyl)-N-methylacetamide] | > 100
CN(Cc1nc2c(N)nc3cc(-n4cccn4)ccc3c2[nH]1)S(C)(=O)=O [Compound 119] | > 100
CN(Cc1nc2c(N)nc3cc(-c4cc[nH]n4)ccc3c2[nH]1)C(=O)C1CC1 [Compound 120] | > 100
CCN(Cc1nc2c(N)nc3cc(-c4cc[nH]n4)ccc3c2n1C)C(C)=O [Compound 121] | > 100
CCC(=O)N(C)Cc1nc2c(N)nc3cc(-c4cc[nH]n4)ccc3c2[nH]1 [Compound 122] | > 100
CCN(Cc1nc2c(N)nc3cc(-c4cc[nH]n4)ccc3c2[nH]1)S(C)(=O)=O [Compound 124] | > 100
CCC(=O)N(CC)Cc1nc2c(N)nc3cc(-c4cc[nH]n4)ccc3c2[nH]1 [Compound 125] | > 100
CCN(Cc1nc2c(N)nc3cc(-c4cc[nH]n4)ccc3c2[nH]1)C(=O)NC [Compound 128] | > 100
CC(=O)N(C)Cc1nc2c(N)nc3cc(-c4cc[nH]n4)ccc3c2[nH]1 [Compound 129] | > 100
CCN(Cc1nc2c(N)nc3cc(-n4cccn4)ccc3c2[nH]1)C(N)=O [Compound 130] | > 100
NCc1nc2c(N)nc3cc(-c4cc[nH]n4)ccc3c2[nH]1 [Compound 131] | > 100
CCN(Cc1nc2c(N)nc3cc(-n4nccn4)ccc3c2[nH]1)C(C)=O [Compound 132] | > 100
CC(c1nc2c(N)nc3cc(-c4cccnc4)ccc3c2[nH]1)N1CCCC1=O (centres unmarked) [Compound 138] | 20 to 100
CC(=O)N(Cc1nc2c(N)nc3cc(-c4cc[nH]n4)ccc3c2[nH]1)C(C)C [Compound 140] | > 100
Nc1nc2ccc(Cl)cc2c2[nH]c(CN3CCCC3=O)nc12 [Compound 141] | > 100
CC(C)(C)OC(=O)NCc1nc2c(N)nc3cc(-c4cc[nH]n4)ccc3c2[nH]1 [Compound 142] | > 100
Nc1nc2cc(Cl)ccc2c2[nH]c(CN3CCCC3=O)nc12 [Compound 143] | 20 to 100
Nc1nc2cc(-c3ccc(Cl)nc3)ccc2c2[nH]c(CN3CCCC3=O)nc12 [Compound 153] | 20 to 100
CCNCc1nc2c(N)nc3cc(OC)ccc3c2[nH]1 [Compound 154] | > 100
CCN(Cc1nc2c(N)nc3cc(-c4ncc[nH]4)ccc3c2[nH]1)C(=O)OC(C)(C)C [Compound 155] | > 100
Nc1nc2cc(-n3ncc4ccccc43)ccc2c2[nH]c(CN3CCCC3=O)nc12 [Compound 157] | 20 to 100

Compound | EC50 [µM]
CCN(Cc1nc2c(N)nc3cc(OC)ccc3c2[nH]1)C(C)=O [Compound 158, N-((4-Amino-7-methoxy-1H-imidazo[4,5-c]quinolin-2-yl)methyl)-N-ethylacetamide] | > 100
CCN(Cc1nc2c(N)nc3cc(Cl)c(Cl)cc3c2[nH]1)C(C)=O [Compound 159] | > 100
CCNCc1nc2c(N)nc3cc(-c4ncc[nH]4)ccc3c2[nH]1 [Compound 162] | > 100
CCN(Cc1nc2c(N)nc3cc(-c4cc[nH]n4)ccc3c2[nH]1)CC(C)C [Compound 453, 2-{[ethyl(2-methylpropyl)amino]methyl}-7-(1H-pyrazol-3-yl)-1H-imidazo[4,5-c]quinolin-4-amine] | > 100
CCN(CC)C(=O)N(CC)Cc1nc2c(N)nc3cc(-c4cc[nH]n4)ccc3c2[nH]1 [Compound 454, 1-{[4-amino-7-(1H-pyrazol-3-yl)-1H-imidazo[4,5-c]quinolin-2-yl]methyl}-1,3,3-triethylurea] | > 100
CCN(Cc1nc2c(N)nc3cc(-c4cc[nH]n4)ccc3c2[nH]1)C(=O)N1CCOCC1 [Compound 455, N-{[4-amino-7-(1H-pyrazol-3-yl)-1H-imidazo[4,5-c]quinolin-2-yl]methyl}-N-ethylmorpholine-4-carboxamide] | > 100
CCN(Cc1nc2c(N)nc3cc(-c4cc[nH]n4)ccc3c2[nH]1)C(=O)NC(C)(C)C [Compound 456, 1-{[4-amino-7-(1H-pyrazol-3-yl)-1H-imidazo[4,5-c]quinolin-2-yl]methyl}-3-tert-butyl-1-ethylurea] | > 100
CCNC(=O)N(CC)Cc1nc2c(N)nc3cc(-c4cc[nH]n4)ccc3c2[nH]1 [Compound 457, 1-{[4-amino-7-(1H-pyrazol-3-yl)-1H-imidazo[4,5-c]quinolin-2-yl]methyl}-1,3-diethylurea] | > 100
CCN(Cc1nc2c(N)nc3cc(-c4cc[nH]n4)ccc3c2[nH]1)S(=O)(=O)N(C)C [Compound 458, 2-{[(dimethylsulfamoyl)(ethyl)amino]methyl}-7-(1H-pyrazol-3-yl)-1H-imidazo[4,5-c]quinolin-4-amine] | > 100
CCN(Cc1nc2c(N)nc3cc(-c4cc[nH]n4)ccc3c2[nH]1)S(=O)(=O)C(C)C [Compound 459, N-{[4-amino-7-(1H-pyrazol-3-yl)-1H-imidazo[4,5-c]quinolin-2-yl]methyl}-N-ethylpropane-2-sulfonamide] | > 100
CCCS(=O)(=O)N(CC)Cc1nc2c(N)nc3cc(-c4cc[nH]n4)ccc3c2[nH]1 [Compound 460, N-{[4-amino-7-(1H-pyrazol-3-yl)-1H-imidazo[4,5-c]quinolin-2-yl]methyl}-N-ethylpropane-1-sulfonamide] | > 100
CCNCc1nc2c(N)nc3cc(-c4ccn[nH]4)ccc3c2n1CCO [Compound 462, 2-[4-Amino-2-[(ethylamino)methyl]-7-(1H-pyrazol-5-yl)-1H-imidazo[4,5-c]quinolin-1-yl]ethan-1-ol] | > 100
CCn1c(CN2CCCC2=O)nc2c(N)nc3cc(-c4cccs4)ccc3c21 [Compound 463, 1-{[4-amino-1-ethyl-7-(thiophen-2-yl)-1H-imidazo[4,5-c]quinolin-2-yl]methyl}pyrrolidin-2-one] | > 100
CCNCc1nc2c(N)nc3cc(-c4ccn[nH]4)ccc3c2n1CC [Compound 464, 1-ethyl-2-[(ethylamino)methyl]-7-(1H-pyrazol-5-yl)-1H-imidazo[4,5-c]quinolin-4-amine] | > 100
CCn1c(CN2CCCC2=O)nc2c(N)nc3cc(-n4cccn4)ccc3c21 [Compound 465, 1-{[4-amino-1-ethyl-7-(1H-pyrazol-1-yl)-1H-imidazo[4,5-c]quinolin-2-yl]methyl}pyrrolidin-2-one] | > 100
CCn1c(CN2CCCC2=O)nc2c(N)nc3cc(-c4ccn[nH]4)ccc3c21 [Compound 466, 1-{[4-amino-1-ethyl-7-(1H-pyrazol-5-yl)-1H-imidazo[4,5-c]quinolin-2-yl]methyl}pyrrolidin-2-one] | > 100
CCNCc1nc2c(N)nc3cc(-n4cccn4)ccc3c2n1CC [Compound 467, 1-ethyl-2-((ethylamino)methyl)-7-(1H-pyrazol-1-yl)-1H-imidazo[4,5-c]quinolin-4-amine] | > 100
CCNCc1nc2c(N)nc3cc(-c4cccs4)ccc3c2n1CC [Compound 468, 1-ethyl-2-[(ethylamino)methyl]-7-(thiophen-2-yl)-1H-imidazo[4,5-c]quinolin-4-amine] | > 100
Nc1nc2cc(-c3cccs3)ccc2c2c1nc(CN1CCCC1=O)n2CCO [Compound 469, 1-{[4-amino-1-(2-hydroxyethyl)-7-(thiophen-2-yl)-1H-imidazo[4,5-c]quinolin-2-yl]methyl}pyrrolidin-2-one] | > 100
CCC(=O)N(CC)Cc1nc2c(N)nc3cc(-c4cccs4)ccc3c2n1CCO [Compound 470, N-{[4-amino-1-(2-hydroxyethyl)-7-(thiophen-2-yl)-1H-imidazo[4,5-c]quinolin-2-yl]methyl}-N-ethylpropanamide] | > 100
CCNCc1nc2c(N)nc3cc(-c4cccs4)ccc3c2n1CCO [Compound 471, 2-{4-amino-2-[(ethylamino)methyl]-7-(thiophen-2-yl)-1H-imidazo[4,5-c]quinolin-1-yl}ethan-1-ol] | > 100
CCN(Cc1nc2c(N)nc3cc(-c4cccs4)ccc3c2n1CC)C(C)=O [Compound 472, N-{[4-amino-1-ethyl-7-(thiophen-2-yl)-1H-imidazo[4,5-c]quinolin-2-yl]methyl}-N-ethylacetamide] | > 100
